# Assay results from patent publication US9365574B2, “Soluble guanylate cyclase activators” (Merck Sharp & Dohme Corp., priority 2010, dated 2016).
# Test system: Spontaneously hypertensive rats (SHR)
# Assay: Acute Efficacy in Spontaneously Hypertensive Rats (SHR), telemetry blood pressure
# Format: in vivo, rat
# Conditions: dose 0.3 mpk
# From the text: Acute Efficacy in Spontaneously Hypertensive Rats (SHR)
# Spontaneously hypertensive rats (SHR, male, Charles River) were implanted with DSI TA11PA-C40 telemetry device (Data Sciences, Inc., St. Paul, Minn.) under isoflurane or ketamine/metomidine anesthesia. The telemetry unit catheter was inserted into the descending aorta via the femoral artery and the telemetry device was implanted subcutaneously in the left flank area. Animals were allowed to recover from surgery for 14 days before the start of any studies. Blood pressure, heart rate, and activity signals from conscious, freely moving rats were recorded continuously for 30 seconds every 10 minutes. On the day prior to administration of compound, a single oral dose of vehicle (10% transcutol/20% Cremophor/70% water) was administered to all animals to establish baseline control data. The blood pressure lowering efficacy of compound (PO) or vehicle was evaluated following a single oral gavage. Data were collected as hourly averages, and changes in blood pressure were calculated by subtracting control baseline data on an hourly basis. Animals were maintained on normal diet with a 12 hour light-dark cycle.
# Maximum peak decreases of systolic blood pressure (SBP) in SHR at a particular P.O. dose (mpk milligrams per kilogram) for the following representative compounds are provided.
row,SMILES,Maximum SBP reduction [mmHg]
1,"NC(=O)C1(C2CC2)C(=O)Nc2nc(-c3nn(CCC(F)(F)C(F)(F)F)c4ncccc34)nc(N)c21 (stereo not shown) [Example 162, 4-Amino-5-Cyclopropyl-6-Oxo-2-[1-(3,3,4,4,4-Pentafluorobutyl)-1H-Pyrazolo[3,4-B]Pyridin-3-yl]-6,7-Dihydro-5H-Pyrrolo[2,3-D]Pyrimidine-5-Carboxamide]",26 ± 7
2,"CC1(C(=O)NC2CC2)C(=O)Nc2nc(-c3nn(CCC(F)(F)C(F)(F)F)c4cc(Cl)ccc34)nc(N)c21 (single isomer, unassigned) [Example 160, 4-Amino-2-[6-Chloro-1-(3,3,4,4,4-Pentafluorobutyl)-1H-Indazol-3-yl]-N-Cyclopropyl-5-Methyl-6-Oxo-6,7-Dihydro-5H-Pyrrolo[2,3-D]Pyrimidine-5-Carboxamide]",77 ± 10
3,"CC1(C(=O)NC2CC2)C(=O)Nc2nc(-c3nn(CCC(F)(F)F)c4ncccc34)nc(N)c21 (stereo not shown) [Example 181, 4-Amino-N-Cyclopropyl-5-Methyl-6-Oxo-2-[1-(3,3,3-Trifluoropropyl)-1H-Pyrazolo[3,4-B]Pyridin-3-yl]-6,7-Dihydro-5H-Pyrrolo[2,3-D]Pyrimidine-5-Carboxamide]",49 ± 2

# Same assay, conditions: single oral dose 0.1 mpk P.O.
row,SMILES,"Maximum peak decrease of systolic blood pressure (SBP) in SHR, Category"
1,"CC1(C(N)=O)C(=O)Nc2nc(-c3nn(CCC(F)(F)C(F)(F)F)c4nc(Cl)ccc34)nc(N)c21 (stereo not shown) [Example 214, 4-amino-2-[6-chloro-1-(3,3,4,4,4-pentafluorobutyl)-1H-pyrazolo[3,4-b]pyridin-3-yl]-5-methyl-6-oxo-6,7-dihydro-5H-pyrrolo[2,3-d]pyrimidine-5-carboxamide]",A (Category A=SBP in SHRs<25 mmHg)

# Same assay, conditions: single oral dose 0.3 mpk P.O.
row,SMILES,"Maximum peak decrease of systolic blood pressure (SBP) in SHR, Category"
1,"NC(=O)C1(C2CC2)C(=O)Nc2nc(-c3nn(CCC(F)(F)C(F)(F)F)c4ncccc34)nc(N)c21 (stereo not shown) [Example 162, 4-Amino-5-Cyclopropyl-6-Oxo-2-[1-(3,3,4,4,4-Pentafluorobutyl)-1H-Pyrazolo[3,4-B]Pyridin-3-yl]-6,7-Dihydro-5H-Pyrrolo[2,3-D]Pyrimidine-5-Carboxamide]",B (Category B=SBP in SHRs 25-40 mmHg)
2,"CC1(C(=O)NC2CC2)C(=O)Nc2nc(-c3nn(CCC(F)(F)C(F)(F)F)c4nc(C5CC5)ccc34)nc(N)c21 (stereo not shown) [Example 223, 4-amino-N-cyclopropyl-2-[6-cyclopropyl-1-(3,3,4,4,4-pentafluorobutyl)-1H-pyrazolo[3,4-b]pyridin-3-yl]-5-methyl-6-oxo-6,7-dihydro-5H-pyrrolo[2,3-d]pyrimidine-5-carboxamide]",B (Category B=SBP in SHRs 25-40 mmHg)
3,"CC1(C(N)=O)C(=O)Nc2nc(-c3nn(CCCC(F)(F)F)c4ncccc34)nc(N)c21 (stereo not shown) [Example 228, 4-amino-5-methyl-6-oxo-2-[1-(4,4,4-trifluorobutyl)-1H-pyrazolo[3,4-b]pyridin-3-yl]-6,7-dihydro-5H-pyrrolo[2,3-d]pyrimidine-5-carboxamide]",A (Category A=SBP in SHRs<25 mmHg)
4,"CC1(C(=O)NC2CC2)C(=O)Nc2nc(-c3nn(CCC(F)(F)C(F)(F)F)c4cc(Cl)ccc34)nc(N)c21 (single isomer, unassigned) [Example 160, 4-Amino-2-[6-Chloro-1-(3,3,4,4,4-Pentafluorobutyl)-1H-Indazol-3-yl]-N-Cyclopropyl-5-Methyl-6-Oxo-6,7-Dihydro-5H-Pyrrolo[2,3-D]Pyrimidine-5-Carboxamide]",C (Category C=SBP in SHRs>40 mmHg)
5,"CNc1nc(-c2nn(CCC(F)(F)C(F)(F)F)c3ncccc23)nc2c1C(C)(c1nnc(C)o1)C(=O)N2 (stereo not shown) [Example 189, 5-Methyl-4-(Methylamino)-5-(5-Methyl-1,3,4-Oxadiazol-2-yl)-2-[1-(3,3,4,4,4-Pentafluorobutyl)-1H-Pyrazolo [3,4-B]Pyridin-3-yl]-5,7-Dihydro-6H-Pyrrolo[2,3-D]Pyrimidin-6-One]",C (Category C=SBP in SHRs>40 mmHg)
6,"CC1(c2nnc(C3CC3)o2)C(=O)Nc2nc(-c3nn(CCCC(F)(F)F)c4ncccc34)nc(N)c21 (stereo not shown) [Example 225, 4-amino-5-(5-cyclopropyl-1,3,4-oxadiazol-2-yl)-5-methyl-2-[1-(4,4,4-trifluorobutyl)-1H-pyrazolo[3,4-b]pyridin-3-yl]-5,7-dihydro-6H-pyrrolo[2,3-d]pyrimidin-6-one]",C (Category C=SBP in SHRs>40 mmHg)
7,"CC1(c2nc(C(F)(F)F)no2)C(=O)Nc2nc(-c3nn(CCC(F)(F)C(F)(F)F)c4ncccc34)nc(N)c21 (stereo not shown) [Example 207, 4-amino-5-methyl-2-[1-(3,3,4,4,4-pentafluorobutyl)-1H-pyrazolo[3,4-b]pyridin-3-yl]-5-[3-(trifluoromethyl)-1,2,4-oxadiazol-5-yl]-5,7-dihydro-6H-pyrrolo[2,3-d]pyrimidin-6-one]",C (Category C=SBP in SHRs>40 mmHg)
8,"CCOC(=O)NC1(C)C(=O)Nc2nc(-c3nn(CCC(F)(F)C(F)(F)F)c4cc(Cl)ccc34)nc(N)c21 (stereo not shown) [Example 166, Ethyl (4-Amino-2-(6-Chloro-1-(3,3,4,4,4-Pentafluorobutyl)-1H-Indazol-3-yl)-5-Methyl-6-Oxo-6,7-Dihydro-5H-Pyrrolo[2,3-D]Pyrimidin-5-yl)Carbamate]",A (Category A=SBP in SHRs<25 mmHg)
9,"Cn1cc(NC(=O)C2(C)C(=O)Nc3nc(-c4nn(CCOC(F)(F)F)c5ncccc45)nc(N)c32)cn1 (stereo not shown) [Example 215, 4-amino-5-methyl-N-(1-methyl-1H-pyrazol-4-yl)-6-oxo-2-{1-[2-(trifluoromethoxy)ethyl]-1H-pyrazolo[3,4-b]pyridin-3-yl}-6,7-dihydro-5H-pyrrolo[2,3-d]pyrimidine-5-carboxamide]",B (Category B=SBP in SHRs 25-40 mmHg)
10,"C#CC1(C)C(=O)Nc2nc(-c3nn(CCC(F)(F)C(F)(F)F)c4ncccc34)nc(N)c21 (stereo not shown) [Example 219, 4-amino-5-ethynyl-5-methyl-2-[1-(3,3,4,4,4-pentafluorobutyl)-1H-pyrazolo[3,4-b]pyridin-3-yl]-5,7-dihydro-6H-pyrrolo[2,3-d]pyrimidin-6-one]",C (Category C=SBP in SHRs>40 mmHg)
11,"CNc1nc(-c2nc(CCC(F)(F)C(F)(F)F)n3ncccc23)nc2c1C(C)(C(=O)NC1CC1)C(=O)N2 (stereo not shown) [Example 260, N-cyclopropyl-5-methyl-4-(methylamino)-6-oxo-2-[7-(3,3,4,4,4-pentafluorobutyl)imidazo[1,5-b]pyridazin-5-yl]-6,7-dihydro-5H-pyrrolo[2,3-d]pyrimidine-5-carboxamide]",B (Category B=SBP in SHRs 25-40 mmHg)
12,"CNc1nc(-c2nn(CCC(F)(F)C(F)(F)F)c3ncccc23)nc2c1C(C)(c1nnc(C3CC3)o1)C(=O)N2 (stereo not shown) [Example 261, 5-(5-cyclopropyl-1,3,4-oxadiazol-2-yl)-5-methyl-4-(methylamino)-2-[1-(3,3,4,4,4-pentafluorobutyl)-1H-pyrazolo[3,4-b]pyridin-3-yl]-5,7-dihydro-6H-pyrrolo[2,3-d]pyrimidin-6-one]",C (Category C=SBP in SHRs>40 mmHg)
13,"CC1(C(=O)NC2CC2)C(=O)Nc2nc(-c3nn(CCC(F)(F)F)c4ncccc34)nc(N)c21 (stereo not shown) [Example 181, 4-Amino-N-Cyclopropyl-5-Methyl-6-Oxo-2-[1-(3,3,3-Trifluoropropyl)-1H-Pyrazolo[3,4-B]Pyridin-3-yl]-6,7-Dihydro-5H-Pyrrolo[2,3-D]Pyrimidine-5-Carboxamide]",B (Category B=SBP in SHRs 25-40 mmHg)
14,"CC1(c2ccccc2)C(=O)Nc2nc(-c3nc(CCC(F)(F)C(F)(F)F)c4ncccn34)nc(N)c21 (stereo not shown) [Example 191, 4-Amino-5-Methyl-2-[8-(3,3,4,4,4-Pentafluorobutyl)Imidazo[1,5-A]Pyrimidin-6-yl]-5-Phenyl-5,7-Dihydro-6H-Pyrrolo[2,3-D]Pyrimidin-6-One]",B (Category B=SBP in SHRs 25-40 mmHg)

# Same assay, conditions: single oral dose 1 mpk P.O.
row,SMILES,"Maximum peak decrease of systolic blood pressure (SBP) in SHR, Category"
1,"CC1(C(=O)NC2CC2)C(=O)Nc2nc(-c3nn(CCC(F)(F)F)c4nc(C5CC5)ccc34)nc(N)c21 (stereo not shown) [Example 224, 4-amino-N-cyclopropyl-2-[6-cyclopropyl-1-(3,3,3-trifluoropropyl)-1H-pyrazolo[3,4-b]pyridin-3-yl]-5-methyl-6-oxo-6,7-dihydro-5H-pyrrolo[2,3-d]pyrimidine-5-carboxamide]",B (Category B=SBP in SHRs 25-40 mmHg)
